{"source": "paper PMC13267113", "about": "(npj Drug Discovery, 2025)", "key": {"E. coli gyrase": {"system": "E. coli gyrase", "conditions": "cited from earlier work"}, "HeLa (human, cervix)": {"system": "HeLa (human, cervix)", "assay": "MTT cytotoxicity HeLa", "type": "cell-based", "conditions": "72 h, n = 3", "description": "(§1) All cell types were cultivated at 37 °C with 5% CO2. HepG2, HEK293, HCT116, CHO-K1, HeLa-CCL-2 and Huh-7.5 were purchased from ATCC. The respective cell media (Gibco) were supplemented with 10% FBS (Gibco) before usage. Cells were used between passages #5 and #30. To obtain biological repeats, cells were split separately for at least two passages.\n(§2) Cells were washed with PBS and 0.5 mL trypsin was added. Afterwards, cells were incubated for 5 min before adding 10 mL medium containing 10% FBS. Per well, 120 µL cell suspension (5 × 10^4 cells/mL) was seeded in transparent 96-well cell bind plates and incubated for 2 h (37 °C, 5% CO2). A dilution series (1:3) of test compounds was prepared in respective media containing 10% FBS and added (60 µL) to the prepared cell plate. Cells were incubated for a further 72 h (37 °C, 5% CO2). Next, 20 µL MTT (5 mg/mL in PBS) was added to each well and incubated for 2 h (37 °C, 5% CO2). The wells were emptied and 100 µL isopropanol/10 N HCl (1000:4) per well was added.\n(§3) The plates were analyzed by measuring the absorbance at 570 nm (plate reader Infinite® 200 Pro, Tecan). After normalization of data to the respective solvent controls, the calculated percentage of growth inhibition was plotted using GraphPad Prism software (version 10.0.2)."}, "HEK293 (human, kidney)": {"system": "HEK293 (human, kidney)", "assay": "MTT cytotoxicity HEK293", "type": "cell-based", "description": "as §1, §2, §3"}, "Huh-7.5 (human, liver)": {"system": "Huh-7.5 (human, liver)", "assay": "MTT cytotoxicity Huh-7.5", "type": "cell-based", "conditions": "Huh7.5, 72 h, n = 3", "description": "as §1, §2, §3"}, "[1]": {"system": "U2OS (human, osteosarcoma)", "assay": "MTT cytotoxicity U2OS", "type": "cell-based", "conditions": "72 h, n = 3", "description": "as §2, §3"}, "HCT116 (human, colon)": {"system": "HCT116 (human, colon)", "assay": "MTT cytotoxicity HCT116", "type": "cell-based", "conditions": "HCT-116, 72 h, n = 3", "description": "as §1, §2, §3"}, "CHO-K1 (hamster, ovary)": {"system": "CHO-K1 (hamster, ovary)", "assay": "MTT cytotoxicity CHO-K1", "type": "cell-based", "conditions": "CHO-K1, 72 h, n = 3", "description": "as §1, §2, §3"}, "U-2 OS cells": {"system": "U-2 OS cells", "assay": "Mitochondrial superoxide formation (MitoSOX Red)", "type": "cell-based, human", "conditions": "n = 6", "description": "CYS was tested for its potential to induce oxidative stress in U-2 OS cells. Therefore, 120 µL of a cell suspension in McCoy’s (+10% FBS) containing 5 × 10^4 cells/mL were seeded into black 96-well imaging plate (BD Falcon). The plates were incubated for two days (37 °C, 5% CO2) until the cells reached approximately 70% confluence. Subsequently, the cells were washed with HBSS buffer, prior to adding CYS (20 µM) and the ROS inducer menadione (50 µM) as positive control, along with the staining solution (HBSS, calcium, magnesium, 5 µM MitoSOX red and 10 µg/mL Hoechst (Thermo)). To check for ROS protective properties, menadione (50 µM) was added directly to the staining solution. […] Afterwards, the cells were washed twice with HBSS. The cells were imaged using an automated fluorescence microscope (Celldiscoverer 7, Zeiss) (excitation: […]) to analyze the fluorescence intensity of the superoxide tracker MitoSOX red. The experiment was carried out with six replicates per condition. Quantification was done by high-content image analysis using the ZEN software (version 3.4, blue edition, Zeiss). Data presentation was done using GraphPad Prism (version 10.0.3) with ordinary one-way ANOVA including multiple comparisons to the control group for statistical analysis of the sample without ROS induction via menadione in the staining solution. Multiple unpaired t test was used to compare samples for ROS protective properties, which were incubated with menadione in the staining solution."}, "HepG2 (human, liver)": {"system": "HepG2 (human, liver)", "assay": "MTT cytotoxicity HepG2", "type": "cell-based", "conditions": "72 h, n = 3", "description": "as §1, §2, §3"}, "[2]": {"assay": "Metabolic stability in mouse hepatocytes", "type": "in vitro ADME", "conditions": "mouse, pooled mouse hepatocytes; 1 μM, 0.25 × 10^6 cells/mL; read-out: Mouse Hepatocytes t1/2", "description": "For the evaluation of combined phase I and phase II metabolic stability, the compound (1 μM) was incubated with 0.25 × 10^6 cells/mL of pooled mouse hepatocytes (Xenotech, Kansas City, USA). Cells were thawed in Leibovitz’s L-15 medium without phenol red (ThermoFisher Scientific, Waltham, USA). Briefly, cells were transferred into 50 mL of medium, followed by centrifugation at 55 g for 6 min. Supernatant was discarded, and the cell count was determined after gently resuspending the cell pellet in 1mL of medium. Hepatocytes were diluted to 0.5 × 10^6 cells/mL and incubated at 37 °C, 700 rpm for 10 min, to achieve the desired final cell count after addition of an equal volume of test compounds in medium, leading to a final test concentration of 1 µM at 1% DMSO. […] For the determination of metabolism in the presence of cobicistat, this drug was added together with test compounds in the desired concentration range. The metabolic stability of testosterone, verapamil, ketoconazole and 7-hydroxycoumarine were determined in parallel to confirm the enzymatic activity of mouse hepatocytes. […] Concentration of the remaining test compound at the different time points was analyzed by HPLC-MS/MS (Vanquish Flex coupled to a TSQ Altis Plus, Thermo Fisher, Dreieich, Germany) and used to determine half-life (t1/2). Intrinsic clearance was calculated as follows:2 CLintµL/min×10^6cells=Incubation volumeµL×ln(2)/Cells in incubation mixture[10^6]×t1/2\nFor metabolite identification studies, test compounds were incubated at 10 µM final concentration and samples were analyzed using HPLC-HRMS (Ultimate 3000 coupled to a Q Exactive Focus, Thermo Fisher, Dreieich, Germany). […] Blank samples using DMSO were run in parallel for background subtraction. Sample processing for metabolite identification was performed using Compound Discoverer 3.2 (Thermo Fisher, Dreieich, Germany). Metabolites were identified based on mass shifts and feasibility of the metabolic reaction, also in view of MS peak intensities over time."}, "CHO-K1 cells [3]": {"system": "CHO-K1 cells", "excerpt": "(§12) Subsequently, cells were washed three times with PBS and imaged using Celldiscoverer 7 (Zeiss)."}, "[4]": {"system": "zebrafish embryos [Tg(fabp10a:DsRed; elaA:EGFP)]", "assay": "In vivo hepatotoxicity in zebrafish embryos", "conditions": "soaking 3 to 5 dpf; valproic acid 20, 40 µg/mL", "description": "(§4) Handling of adult zebrafish and experiments with zebrafish embryos were performed in accordance with the EU directive 2010/63/EU and the German Animal Welfare Act (§11 Abs. 1 TierSchG). An automatic aquatic eco-system (PENTAIR, Apoka, UK) was used for zebrafish housing. Adult zebrafish were mated pairwise in our zebrafish facility after one night in the mating cages (light/dark cycle: 14 h/10 h). The eggs were collected after 2 h of mating and placed in a petri dish with fish water (pH 7.36 ± 0.08, conductivity: 800 ± 50 µs). The eggs were washed with 0.3x Danieau´s medium (17 mM NaCl, 0.2 mM KCl, 0.12 mM MgSO4, 0.18 mM Ca(NO3)2, 1.5 mM HEPES, pH 7.1–7.3, and 1.2 µM methylene blue). 300 eggs were placed per Petri dish and stored in the incubator at 28 °C overnight. […]\nZebrafish embryos [Tg(fabp10a:DsRed; elaA:EGFP)] were prepared as described above. […] After 48 h treatment, the embryos were checked via a fluorescence stereomicroscope (M205 FA, Leica) with attention to liver degeneration. Fluorescence images were taken after anesthetizing the embryos with tricaine (40 µg/mL) and placing them laterally (excitation: 558 nm, emission 583 nm, 35× magnification). […] The liver size was calculated using ImageJ software (format: 8 bit, threshold: 40–255, binary, particle size: 10.0-infinite). […] The relative liver sizes of treated embryos were calculated accordingly and normalized to the control group. […]"}, "CHO-K1 cells [5]": {"system": "CHO-K1 cells", "assay": "Micronucleus test", "conditions": "24 h; mitomycin C 0.05 µM, doxorubicin 0.05 µM, etoposide 0.25 µM; CYS 20 µM, 100 µM for Cysto-180", "excerpt": "as §12"}, "zebrafish embryos": {"system": "zebrafish embryos", "assay": "In vivo cardiotoxicity in zebrafish embryos", "conditions": "treated 2 to 3 dpf; CYS 20 µM; terfenadine 10, 20 µM", "description": "as §4, with “overnight. 24 h post-mating, the unfertilized eggs were discarded. The 0.3x Danieau´s media in the petri dishes was replaced every 24 h and embryos with developmental issues were euthanized using ice water.” for “overnight.”\nEmbryos were prepared as described above. […] Afterwards, embryos were anesthetized with tricaine added to the media (40 µg/mL, 0.004% (w/v)) and videos were recorded using a stereomicroscope (1.25 × magnification) (Stemi 508, Zeiss) with Media Recorder (version 4.0) and analyzed via DanioScope software (version 1.2.208, Noldus). […]"}}, "note": "Where two headings read alike, the source gives them in different places.", "data": [{"smiles": "CC(C)Oc1c(NC(=O)c2ccc(NC(=O)[C@H](CC(N)=O)NC(=O)c3ccc(NC(=O)c4ccc(C#N)cc4)cc3)cc2)ccc(C(=O)Nc2ccc(C(=O)O)cc2)c1O", "note": "[CN-DM-861]", "values": [{"measurement": "IC50", "setting": "E. coli gyrase", "value": "[…]"}, {"measurement": "IC50", "setting": "HeLa (human, cervix)", "value": "> 37000", "unit": "nM"}, {"measurement": "IC50", "setting": "HEK293 (human, kidney); HEK293, 72 h, read-out: IC50 HEK293 (human, kidney)", "value": "> 20000", "unit": "nM"}, {"measurement": "IC50", "setting": "Huh-7.5 (human, liver)", "value": "> 20000", "unit": "nM"}, {"measurement": "IC50", "setting": "[1]", "value": "> 20000", "unit": "nM"}, {"measurement": "IC50", "setting": "HCT116 (human, colon)", "value": "> 20000", "unit": "nM"}, {"measurement": "IC50", "setting": "CHO-K1 (hamster, ovary)", "value": "> 20000", "unit": "nM"}, {"measurement": "basal superoxide radical levels vs DMSO control", "setting": "U-2 OS cells; 20 µM, MitoSOX Red, no menadione", "value": "no ROS induction at the maximum soluble concentration"}, {"measurement": "menadione-induced superoxide formation on co-treatment", "setting": "U-2 OS cells; CYS 20 µM + menadione 50 µM", "value": "no significant increase of superoxide"}, {"measurement": "IC50", "setting": "HepG2 (human, liver)", "value": "> 20000", "unit": "nM"}, {"measurement": "half-life at 1 µM", "setting": "[2]", "value": "1.57 ± 0.25", "unit": "h"}]}, {"smiles": "COc1cccc2c1C(=O)c1c(O)c3c(c(O)c1C2=O)C[C@@](O)(C(=O)CO)C[C@@H]3O[C@H]1C[C@H](N)[C@H](O)[C@H](C)O1", "note": "[Doxorubicin, doxorubicin, reference compound]", "values": [{"measurement": "IC50", "setting": "HEK293 (human, kidney); HEK293, MTT, 72 h, n = 3, read-out: IC50 HEK293 (human, kidney)", "value": "160 ± 40", "unit": "nM"}, {"measurement": "micronuclei/nuclear bud formation", "setting": "CHO-K1 cells [3]", "value": "high amount of nuclear bud/micronuclei formation"}, {"measurement": "IC50", "setting": "HCT116 (human, colon)", "value": "240 ± 20", "unit": "nM"}, {"measurement": "IC50", "setting": "CHO-K1 (hamster, ovary)", "value": "100 ± 10", "unit": "nM"}, {"measurement": "IC50", "setting": "HepG2 (human, liver)", "value": "480 ± 130", "unit": "nM"}]}, {"smiles": "CCCC(CCC)C(=O)O", "note": "[Valproic acid, valproic acid]", "values": [{"measurement": "liver size", "setting": "[4]", "value": "significant liver size reduction"}]}, {"smiles": "CO[C@@]12[C@H](COC(N)=O)C3=C(C(=O)C(C)=C(N)C3=O)N1C[C@@H]1N[C@@H]12", "note": "[mitomycin C]", "values": [{"measurement": "micronuclei/nuclear bud formation", "setting": "CHO-K1 cells [5]", "value": "high amount of nuclear bud/micronuclei formation"}]}, {"smiles": "CC(C)(C)c1ccc(C(O)CCCN2CCC(C(O)(c3ccccc3)c3ccccc3)CC2)cc1", "note": "(centres unmarked) [terfenadine]", "values": [{"measurement": "heartbeat rate", "setting": "zebrafish embryos", "value": "significant and concentration-dependent decrease of beats per minute"}, {"measurement": "pericardial area", "setting": "zebrafish embryos", "value": "significant, concentration-dependent increase in pericardial area"}]}]}
